Where two headings read alike, the source gives them in different places. Some results are limits rather than exact numbers.

Series [1] deals with MRC-5 human embryonal lung fibroblast cell line. As to the kind of experiment: MTT antiproliferative assay, MRC-5. The class given is cell-based. The conditions noted are these: 100–0.19 μM, non-tumoral cells; for IC50: read-out: IC50 (µM) ± SD MRC-5. The method, then: Breast cancer cell line MCF-7 (ATCC® HTB-22) and the drug-resistant subline of the human breast cancer MCF-7 (ECACC 86012803; KCR) were purchased from LGC Promochem (Teddington, UK). Both cell lines were cultured in Eagle’s Minimal Essential Medium (EMEM, containing 4.5 g/L glucose) supplemented with a non-essential amino acid mixture, a selection of vitamins, and 10% heat-inactivated fetal bovine serum. In every third passage, 0.56 µg/mL doxorubicin was added to the medium, in order to maintain the ABCB1 (P-glycoprotein) expression in KCR cells. A2780 human ovarian cancer cell line (ECACC, European Collection of Authentical Cell Culture, Sigma Cat.no. 93112519) was purchased from Merck KGaA (Darmstadt, Germany). […] The human ovarian cancer cell lines were cultured in RPMI 1640 medium supplemented with 10% heat-inactivated fetal bovine serum. […] HeLa (ATCC® CCL-2™) human cervix carcinoma cell line was purchased from LGC Promochem (Teddington, UK). The cells were cultured in Eagle’s Minimal Essential Medium (EMEM, containing 4.5 g/L glucose) supplemented with a non-essential amino acid mixture, a selection of vitamins, and 10% heat-inactivated fetal bovine serum. MRC-5 human embryonal lung fibroblast cell line (ATCC® CCL-171) was purchased from LGC Promochem, Teddington, UK. The cell line was cultured in Eagle’s Minimal Essential Medium (EMEM, containing 4.5 g/L glucose) supplemented with a non-essential amino acid mixture, a selection of vitamins, and 10% heat-inactivated fetal bovine serum. HTB-26 breast adenocarcinoma cell line was purchased from LGC Promochem, Teddington, UK. The cell line was cultured in RPMI 1640 medium supplemented with 10% heat-inactivated fetal bovine serum. T-47D (ATCC® HTB-133™) ductal carcinoma cell line was purchased from LGC Promochem, Teddington, UK. The cells were cultured in RPMI 1640 medium supplemented with 10% heat-inactivated fetal bovine serum, 2 mM L-glutamine, 1 mM Na-pyruvate, and 100 mM Hepes. All of the cells were incubated at 37 °C, in a 5% CO2 and 95% air atmosphere.
The antiproliferative effect of the compounds was determined on human breast (MCF-7, KCR, T47D, and HTB-26), cervical (HeLa), and ovarian (A2780 and A2780cis) cancer cells, and on MRC-5 (human embryonic lung fibroblast) cell lines. The adherent cells were cultured in 96-well flat-bottomed microtiter plates, using EMEM supplemented with 10% heat-inactivated fetal bovine serum or RPMI 1640 supplemented with 10% heat-inactivated fetal bovine serum, respectively. The density of the cells was adjusted to 6 × 10^3 cells in 100 μL per well, the cells were seeded for 24 h at 37 °C, with 5% CO2, and then the medium was removed from the plates, and fresh medium (100 μL per well) was added to the cells. The effects of increasing concentrations of compounds on cell proliferation were tested in 96-well flat-bottomed microtiter plates. The compounds were diluted in the appropriate medium; the dilutions of compounds were performed in separate plates and then added to the cells. The starting concentration of the compounds was 100 μM, and two-fold serial dilution was performed (concentration range: 100–0.19 μM). The culture plates were incubated at 37 °C for 72 h; at the end of the incubation period, 20 μL of MTT (thiazolyl blue tetrazolium bromide, Sigma) solution (from a stock solution of 5 mg/mL) was added to each well. After incubation at 37 °C for 4 h, 100 μL of sodium dodecyl sulfate (SDS) (Sigma) solution (10% in 0.01 M HCI) was added to each well, and the plates were further incubated, at 37 °C, overnight. Cell growth was determined by measuring the optical density (OD) at 540/630 nm, with a Multiscan EX ELISA reader (Thermo Labsystems, Cheshire, WA, USA). Mean IC50 values were obtained by best-fitting the dose-dependent inhibition curves in GraphPadPrism5 program (GraphPad Software version 5.00 for Windows, San Diego, CA, USA) from four parallel experiments for each cell line.

Series [2] deals with HeLa cells. Further details: method as in PMID 30127296, PMID 31005716. The conditions noted are these: previously described, read-out: IC50, antiproliferative activity on HeLa cells; cited from earlier work.
Series [3] concerns normal skin fibroblasts CCD966SK. On the set-up: method as in PMID 31005716. As to conditions: even at higher concentrations; cited from earlier work.
The test system of series [4] is G2/M and subG1 cell cycle phase. On the set-up: method as in PMID 31005716. The conditions noted are these: even at lower concentrations; cited from earlier work.
Series [5] concerns caspase-3. On the set-up: method as in PMID 31005716. The conditions noted are these: cited from earlier work.
For series [6], the system named is tubulin. Further details: method as in PMID 31005716. As to conditions: at 200 µM; cited from earlier work.

For `N.N.[Cl][Pt][Cl]` [Cisplatin, cisplatin, reference compound], the IC50 (as a rule, the concentration at which inhibition is half-maximal) in series [1] (72 h) was determined as 0.6 µM. Turning to `C=CC1=C(C)C(=O)C=C2CCC3=C(C=CC(=O)C3(C)OC)C21OC` (centres unmarked) [Compound 1b], the “IC50 (µM) ± SD MRC-5” value in series [1] (72 h) was “did not show an antiproliferative effect”. The IC50 in series [1] (Homo sapiens, MRC5, 72 h) was above 100 µM. The corresponding values for `C=CC1=C(C)C(=O)C=C2CCC3=C(C=CC(=O)C3(C)OCC)C21OCC` (centres unmarked) [Compound 2a] are “did not show an antiproliferative effect” and above 100 µM.

As for `C=CC1=C(C)C(=O)C=C2CCC3=C(C=CC(=O)C3(C)OCC)C21OCC` (centres unmarked) [Compound 2b], the IC50 in series [1] (72 h) is 57.7 ± 0.3 µM. On to `C=CC1=CC(=O)C=C2CCC3=C(C=CC(=O)C3(C)OC)C12OC` (centres unmarked) [Compound 3], for which the IC50 in series [1] (Homo sapiens, MRC5, 72 h) was 12.2 ± 0.2 µM.

`C=CC1=CC(=O)C=C2CCC3=C(C=CC(=O)C3(C)OCC)C12OCC` (centres unmarked) [Compound 4a]: in series [1] (Homo sapiens, MRC5, 72 h), the IC50 is 14.3 ± 0.5 µM. As for `C=CC1=CC(=O)C=C2CCC3=C(C=CC(=O)C3(C)OCC)C12OCC` (centres unmarked) [Compound 4b], the IC50 in series [1] (72 h) was found to be 23.4 ± 1.3 µM. In the case of `C=Cc1cc(O)cc2c1-c1ccc(O)c(C)c1CC2` [effusol], the IC50 is 60.1 ± 5.1 µM in series [1] (Homo sapiens, MRC5, 72 h) and 3.68 µM in series [2]. Take `C=Cc1c(C)c(O)cc2c1-c1ccc(O)c(C)c1CC2` [juncusol]: the IC50 in series [1] (Homo sapiens, MRC5, 72 h) is 40.9 ± 2 µM; in series [2] it was 0.95 µM. Moreover, the “toxicity on normal skin fibroblasts CCD966SK” value in series [3] was “nontoxic”. Besides, in series [4], the “number of cells in the G2/M and subG1 cell cycle phase” value is on record as “increased”. Moreover, the caspase-3 activity result in series [5] is “significant and concentration-dependent increase”. For the same molecule, the tubulin polymerization result in series [6] was “decreased”.

These data come from article PMC7765930, “Antiproliferative Phenanthrenes from Juncus tenuis: Isolation and Diversity-Oriented Semisynthetic Modification” (Molecules, 2020).
